According to US20060069132A1, “Azolecarboxamide herbicides” (priority 2004, published 2006):

Columns and labels:
common ragweed = assay: Test C pre-/postemergence herbicide test; type: in vivo, Ambrosia elatior; parameters: key to Plant response rating, Ragweed: 0 = no effect, 100 = complete control; conditions: for Plant response rating, Ragweed: preemergence; for Ragweed plant response rating: Preemergence, scale 0 to 100, 0 no effect, 100 complete control
Summary of the method: (§1)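 Pre/post spray; non-phytotoxic solvent + surfactant. Post-timing 1–4 leaves, 2–18 cm. Read-out: visual % control vs untreated, day 12–14, greenhouse.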

morningglory = assay: Test A pre-/postemergence herbicide test; type: in vivo, Ipomoea spp.
Summary of the method: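 Greenhouse injury scoring (0–100, complete control = 100) at approximately ten days follows simultaneous pre- and postemergence application. Soil received a directed spray after seeding; seedlings of 2–10 cm at the one- to two-leaf stage were sprayed to runoff.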

kochia = assay: Test C pre-/postemergence herbicide test; type: in vivo, Kochia scoparia; conditions: for Plant response rating, Kochia: preemergence; for Kochia plant response rating: Preemergence, scale 0 to 100, 0 no effect, 100 complete control
Summary of the method: as §1

wild oat = assay: Test B postemergence herbicide test; type: in vivo, Avena fatua; conditions: postemergence, visual rating, scale 0 (no effect) to 100 (complete control)
Summary of the method: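 Scale 0–100: zero equals no visible effect, 100 complete control, judged by eye relative to controls. Timing: 13 to 15 days in greenhouse post-treatment. Growth stage at spraying: two leaves (paddy) or one to four leaves, 2–18 cm (postemergence).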

goosegrass = assay: Test C pre-/postemergence herbicide test; type: in vivo, Eleusine indica; conditions: for Plant response rating, Goosegrass: preemergence; for Goosegrass plant response rating: Preemergence, scale 0 to 100, 0 no effect, 100 complete control
Summary of the method: as §1

pigweed [1] = assay: Test C pre-/postemergence herbicide test; type: in vivo, Amaranthus retroflexus; conditions: for Plant response rating, Pigweed: preemergence; for Pigweed plant response rating: Preemergence, scale 0 to 100, 0 no effect, 100 complete control
Summary of the method: as §1

large crabgrass = assay: Test C pre-/postemergence herbicide test; type: in vivo, Digitaria sanguinalis; conditions: for Plant response rating, Crabgrass, Large: preemergence; for Crabgrass, Large plant response rating: Preemergence, scale 0 to 100, 0 no effect, 100 complete control
Summary of the method: as §1

pigweed [2] = assay: Test B pre-/postemergence herbicide test; type: in vivo, Amaranthus retroflexus; conditions: for Plant response rating, Pigweed / Pigweed plant response rating (0 to 100 scale): preemergence; for Pigweed plant response rating: postemergence, scale 0 (no effect) to 100 (complete control)
Summary of the method: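 Flooded paddy rice and barnyardgrass were treated at the 2-leaf stage; upland plantings received compound either on sown seed or on 1- to 4-leaf seedlings. All were kept 13–15 days in a greenhouse and scored visually, 0–100, relative to untreated plants.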

lambsquarters = assay: Test C pre-/postemergence herbicide test; type: in vivo, Chenopodium album; conditions: for Plant response rating, Lambsquarters: preemergence; for Lambsquarters plant response rating: Preemergence, scale 0 to 100, 0 no effect, 100 complete control
Summary of the method: as §1

[3] = 125 g ai/ha, scale 0 (no effect) to 100 (complete control), visual, 12 to 14 days
[4] = Postemergence, 500 g ai/ha, 0 to 100 scale, 0 no effect, 100 complete control
[5] = Postemergence, 2000 g ai/ha, 0 to 100 scale, 0 no effect, 100 complete control
[6] = Preemergence, 2000 g ai/ha, visual rating, 0 to 100 scale (0 no effect, 100 complete control)
[7] = 500 g ai/ha, visual rating 0-100, 0 no effect, 100 complete control
[8] = preemergence, 500 g ai/ha, visual injury, 0 to 100 scale (0 no effect, 100 complete control)
[9] = 125 g ai/ha, 0 = no effect, 100 = complete control
[10] = 500 g ai/ha, scale 0 to 100 (0 no effect, 100 complete control), visual, 12 to 14 days

| SMILES | Plant response rating, Ragweed (common ragweed; 62 g ai/ha, scale 0 to 100) | Plant response rating, Ragweed (common ragweed; [3]) | Ragweed plant response rating (common ragweed; 500 g ai/ha) | Morningglory plant response rating (morningglory; [4]) | Plant response rating, Morningglory (morningglory; [5]) | Morningglory plant response rating (morningglory; [6]) | Plant response rating, Kochia (kochia; 62 g ai/ha, scale 0 to 100) | Plant response rating, Kochia (kochia; [3]) | Oat, Wild plant response rating (wild oat; 125 g ai/ha) | Oat, Wild plant response rating (wild oat; 500 g ai/ha) | Plant response rating, Goosegrass (goosegrass; 62 g ai/ha, scale 0 to 100) | Plant response rating, Goosegrass (goosegrass; [3]) | Plant response rating, Pigweed (pigweed [1]; 62 g ai/ha, scale 0 to 100) | Plant response rating, Pigweed (pigweed [1]; [3]) | Plant response rating, Crabgrass, Large (large crabgrass; 62 g ai/ha, scale 0 to 100) | Plant response rating, Crabgrass, Large (large crabgrass; [3]) | Pigweed plant response rating (pigweed [2]; 125 g ai/ha, visual rating) | Pigweed plant response rating (pigweed [2]; 500 g ai/ha, visual rating) | Plant response rating, Lambsquarters (lambsquarters; 62 g ai/ha, scale 0 to 100) | Plant response rating, Lambsquarters (lambsquarters; [3]) | other results |
| --- | --- | --- | --- | --- | --- | --- | --- | --- | --- | --- | --- | --- | --- | --- | --- | --- | --- | --- | --- | --- | --- |
| CCNC(=O)c1cc(C)nc(NC(=O)c2cc(C(C)(C)C)nn2CC)c1 [Compound 149] | 0 | 0 | 5 | 30 | 60 | 65 | 0 | 10 | 10 | 30 | 10 | 70 | 20 | 100 | 20 | 90 | 50 | 70 | 75 | 95 | Morningglory plant response rating (morningglory; Preemergence, 500 g ai/ha, visual rating, 0 to 100 scale (0 no effect, 100 complete control)): 30; Kochia plant response rating (kochia; 500 g ai/ha): 90; Goosegrass plant response rating (goosegrass; 500 g ai/ha): 90; Pigweed plant response rating (pigweed [1]; 500 g ai/ha): 100; Plant response rating, Crabgrass, Large (large crabgrass; 250 g ai/ha, scale 0 to 100 (0 no effect, 100 complete control), visual, 12 to 14 days): 100; Crabgrass, Large plant response rating (large crabgrass; 500 g ai/ha): 100; Plant response rating, Pigweed (pigweed [2]; [7]): 100; Plant response rating, Pigweed (pigweed [2]; 125 g ai/ha, 0 to 100 scale, 0 is no effect, 100 is complete control): 100; Lambsquarters plant response rating (lambsquarters; 500 g ai/ha): 95 |
| C=CCNC(=O)c1cccc(NC(=O)c2sc(C(C)(C)C)nc2C)c1 [Compound 202] | 0 | 80 | 95 | 75 | 75 | 70 | 60 | 85 | 10 | 10 | 20 | 85 | 95 | 100 | 80 | 95 | 30 | 40 | 40 | 90 | Plant response rating, Ragweed (common ragweed; 250 g ai/ha, scale 0-100): 95; Morningglory plant response rating (morningglory; [8]): 15; Plant response rating, Kochia (kochia; 250 g ai/ha, scale 0-100): 85; Kochia plant response rating (kochia; 500 g ai/ha): 95; Plant response rating, Goosegrass (goosegrass; 250 g ai/ha, scale 0-100): 90; Goosegrass plant response rating (goosegrass; 500 g ai/ha): 95; Plant response rating, Pigweed (pigweed [1]; 250 g ai/ha, scale 0-100): 100; Pigweed plant response rating (pigweed [1]; 500 g ai/ha): 100; Plant response rating, Crabgrass, Large (large crabgrass; 250 g ai/ha, scale 0-100): 95; Crabgrass, Large plant response rating (large crabgrass; 500 g ai/ha): 95; Pigweed plant response rating (0 to 100 scale) (pigweed [2]; [9]): 10; Plant response rating, Pigweed (pigweed [2]; [7]): 90; Plant response rating, Lambsquarters (lambsquarters; 250 g ai/ha, scale 0-100): 100; Lambsquarters plant response rating (lambsquarters; 500 g ai/ha): 100 |
| CCc1nc(C(C)(C)C)sc1C(=O)Nc1cccc(C(=O)NCC2CC2)n1 [Compound 215] | 0 |  |  | 25 | 35 | 55 | 100 | 100 | 10 | 20 | 0 | 40 | 80 | 100 | 0 | 70 | 20 | 70 | 100 | 100 | Plant response rating, Ragweed (common ragweed; 250 g ai/ha, scale 0-100): 100; Plant response rating, Ragweed (common ragweed; [10]): 100; Morningglory plant response rating (morningglory; [8]): 20; Plant response rating, Kochia (kochia; 250 g ai/ha, scale 0-100): 100; Plant response rating, Kochia (kochia; [10]): 100; Plant response rating, Goosegrass (goosegrass; 250 g ai/ha, scale 0-100): 80; Plant response rating, Goosegrass (goosegrass; [10]): 100; Plant response rating, Pigweed (pigweed [1]; 250 g ai/ha, scale 0-100): 100; Plant response rating, Pigweed (pigweed [1]; [10]): 100; Plant response rating, Crabgrass, Large (large crabgrass; 250 g ai/ha, scale 0-100): 85; Plant response rating, Crabgrass, Large (large crabgrass; [10]): 100; Pigweed plant response rating (0 to 100 scale) (pigweed [2]; [9]): 80; Plant response rating, Pigweed (pigweed [2]; 500 g ai/ha, visual rating, 0 = no effect, 100 = complete control): 100; Plant response rating, Lambsquarters (lambsquarters; 250 g ai/ha, scale 0-100): 100; Plant response rating, Lambsquarters (lambsquarters; [10]): 100 |
